In US12384800B2, “Antitumoral compounds” (priority 2017, dated 2025):

How the values were obtained:
HT1080 tumors = experiment: Human fibrosarcoma xenograft, total diameter (tumor + leg)
H460 tumors = experiment: Human lung (NSCLC) xenograft, tumor volume
Experimental: (§1) Female athymic nu/nu mice (Harlan Laboratories Models, S.L. Barcelona, Spain or Envigo, Spain) were utilized for all experiments. Animal were housed in individually ventilated cages Sealsafe® Plus, Techniplast S.P.A.), up to ten per cage on a 12-hour light-dark cycle at 21-23° C. and 40-60% humidity. […] Animals were acclimated for at least 5 days prior to tumor implantation with a tumor cell suspension.
H460 cells were maintained in vitro at 37° C. with 5% CO2 in Dulbecco's Modified Eagle's Medium (Sigma-Aldrich, Co). Culture cells were passaged every 3 to 5 days upon reaching confluence. Each animal was subcutaneously implanted (on the right flank using 26G needle and a 1 cc syringe) at 4-6 weeks of age with 5×10^6 H460 cells suspended in 0.05 mL of a solution consisting of 50% Matrigel® (Corning Incorporated Life Sciences) and 50% medium without serum or antibiotics.
(§2) Treatment tolerability was assessed by monitoring body weight evolution, clinical signs of systemic toxicity, as well as evidences of local damage in the injection site.
(§3) In Xenograft Studies with Other Cell Lines: • Tumor volume was calculated using the equation (a·b^2)/2, where a: length (longest diameter) and b: width (shortest diameter) were measured in mm by using digital caliper (Fowler Sylvac, S235PAT).
(§4) Treatments producing >20% lethality and/or 20% net body weight loss were considered toxic.
Tables and figures summarize the data obtained from complete experimental groups, i.e. those groups keeping the initial number of animals, n=8-10.

A2780 tumors = experiment: Human ovarian xenograft, tumor volume
Experimental: as §1
Culture cells were passaged every 3 to 5 days upon reaching confluence. Each animal was subcutaneously implanted (on the right flank using 26G needle and a 1 cc syringe) at 4-6 weeks of age with 10×10^6 A2780 cells suspended in 0.05 mL of a solution consisting of 50% Matrigel® (Corning Incorporated Life Sciences) and 50% medium without serum or antibiotics.
as §2, §3, §4

MDA-MB-231 tumors = experiment: Human breast xenograft, tumor volume
Experimental: as §1
MDA-MB-231 cells were maintained in vitro at 37° C. with 5% CO2 in Dulbecco's Modified Eagle's Medium (Sigma-Aldrich, Co). Culture cells were passaged every 3 to 5 days upon reaching confluence.
as §2, §3, §4

HGC27 tumors = experiment: Human gastric xenograft, tumor volume
Experimental: as §1
HGC27 cells were maintained in vitro at 37° C. with 5% CO2 in Iscove's Modified Dulbecco's Medium (Sigma Aldrich, Co). Culture cells were passage every 3 to 5 days on reaching confluence. Each animal was subcutaneously implanted (on the right flank using 26G needle and a 1 cc syringe) at 4-6 weeks of age with 5×10^6 HGC-27 cells suspended in 0.05 mL of a solution consisting of 50% Matrigel® (Corning Incorporated Life Sciences), 50% medium without serum or antibiotics.
as §2, §3, §4

Compound | Total diameter (tumor + leg) (HT1080 tumors; Day 2) [mm] | Total diameter (tumor + leg) (HT1080 tumors; Day 5) [mm] | Total diameter (tumor + leg) (HT1080 tumors; Day 7) [mm] | Total diameter (tumor + leg) (HT1080 tumors; Day 9) [mm] | Total diameter (tumor + leg) (HT1080 tumors; Day 12) [mm] | Total diameter (tumor + leg) (HT1080 tumors; Day 14) [mm] | Total diameter (tumor + leg) (HT1080 tumors; Day 16) [mm] | Total diameter (tumor + leg) (HT1080 tumors; Day 19) [mm] | Median Tumor Volume (H460 tumors; Day 2) [mm^3] | Median Tumor Volume (H460 tumors; Day 5) [mm^3] | Median Tumor Volume (H460 tumors; Day 7) [mm^3] | Median Tumor Volume (H460 tumors; Day 9) [mm^3] | Median Tumor Volume (H460 tumors; Day 12) [mm^3] | Median Tumor Volume (H460 tumors; Day 14) [mm^3] | Median Tumor Volume (A2780 tumors; Day 2) [mm^3] | Median Tumor Volume (A2780 tumors; Day 5) [mm^3] | Median Tumor Volume (A2780 tumors; Day 7) [mm^3] | Median Tumor Volume (A2780 tumors; Day 9) [mm^3] | Median Tumor Volume (A2780 tumors; Day 12) [mm^3] | Median Tumor Volume (A2780 tumors; Day 14) [mm^3] | further results
COc1c(C)cc2c(c1O)[C@@H]1[C@@H]3[C@@H]4SC[C@]5(N[C@@H](CN)Cc6c5oc5ccccc65)C(=O)OC[C@@H](c5c6c(c(C)c(OC(C)=O)c54)OCO6)N3[C@@H](O)[C@H](C2)N1C [Compound 47-R] | 8.9 | 10.1 | 10.5 | 11.5 | 13.5 | 13.9 | 14.6 | 18.0 | 508.1 | 979.3 | 1280.0 | 1543.1 | 1764.0 | 1845.5 | 280.6 | 653.9 | 848.7 | 1569.1 | 1764.0 | 1666.0 | Median Tumor Volume (A2780 tumors; Day 16): 2025.0 mm^3; Median Tumor Volume (MDA-MB-231 tumors; Day 2): 225.3 mm^3; Median Tumor Volume (MDA-MB-231 tumors; Day 5): 323.2 mm^3; Median Tumor Volume (MDA-MB-231 tumors; Day 7): 405.0 mm^3; Median Tumor Volume (MDA-MB-231 tumors; Day 9): 495.9 mm^3; Median Tumor Volume (MDA-MB-231 tumors; Day 12): 594.1 mm^3; Median Tumor Volume (MDA-MB-231 tumors; Day 14): 769.5 mm^3; Median Tumor Volume (MDA-MB-231 tumors; Day 16): 1009.5 mm^3; Median Tumor Volume (MDA-MB-231 tumors; Day 19): 1298.0 mm^3; Median Tumor Volume (MDA-MB-231 tumors; Day 21): 1580.7 mm^3; Median Tumor Volume (MDA-MB-231 tumors; Day 23): 2006.5 mm^3; Median Tumor Volume (MDA-MB-231 tumors; Day 26): 2032.1 mm^3; Median Tumor Volume (HGC27 tumors; Day 2): 359.4 mm^3; Median Tumor Volume (HGC27 tumors; Day 5): 774.8 mm^3; Median Tumor Volume (HGC27 tumors; Day 7): 1155.4 mm^3; Median Tumor Volume (HGC27 tumors; Day 9): 1474.7 mm^3; Median Tumor Volume (HGC27 tumors; Day 12): 1870.2 mm^3; Median Tumor Volume (HGC27 tumors; Day 14): 2031.3 mm^3; Median Tumor Volume (HGC27 tumors; Day 16): 2075.2 mm^3
COc1c(C)cc2c(c1O)[C@@H]1[C@@H]3[C@@H]4SC[C@]5(N[C@@H](CN)Cc6c5[nH]c5ccccc65)C(=O)OC[C@@H](c5c6c(c(C)c(OC(C)=O)c54)OCO6)N3[C@@H](O)[C@H](C2)N1C [Compound 12-R] | 8.9 | 8.8 | 9.5 | 9.5 | 11.0 | 11.7 | 12.9 | 13.5 | 410.7 | 796.7 | 1167.9 | 1360.3 | 1666.0 | 2025.0 | 302.8 | 786.5 | 1113.3 | 1490.6 | 2025.00 | 2025.00 | Total diameter (tumor + leg) (HT1080 tumors; Day 21): 15.5 mm; Total diameter (tumor + leg) (HT1080 tumors; Day 23): 18.0 mm; Median Tumor Volume (MDA-MB-231 tumors; Day 2): 223.0 mm^3; Median Tumor Volume (MDA-MB-231 tumors; Day 5): 296.1 mm^3; Median Tumor Volume (MDA-MB-231 tumors; Day 7): 378.3 mm^3; Median Tumor Volume (MDA-MB-231 tumors; Day 9): 472.7 mm^3; Median Tumor Volume (MDA-MB-231 tumors; Day 12): 609.9 mm^3; Median Tumor Volume (MDA-MB-231 tumors; Day 14): 782.5 mm^3; Median Tumor Volume (MDA-MB-231 tumors; Day 16): 972.4 mm^3; Median Tumor Volume (MDA-MB-231 tumors; Day 19): 1211.0 mm^3; Median Tumor Volume (MDA-MB-231 tumors; Day 21): 1463.4 mm^3; Median Tumor Volume (MDA-MB-231 tumors; Day 23): 1756.5 mm^3; Median Tumor Volume (MDA-MB-231 tumors; Day 26): 2028.6 mm^3; Median Tumor Volume (HGC27 tumors; Day 2): 413.3 mm^3; Median Tumor Volume (HGC27 tumors; Day 5): 809.1 mm^3; Median Tumor Volume (HGC27 tumors; Day 7): 1261.5 mm^3; Median Tumor Volume (HGC27 tumors; Day 9): 1589.5 mm^3; Median Tumor Volume (HGC27 tumors; Day 12): 2017.9 mm^3; Median Tumor Volume (HGC27 tumors; Day 14): 2034.9 mm^3
